Our source for the MIC values is ChEMBL document CHEMBL1671742, “Overexpression of the adeB gene in clinical isolates of tigecycline-nonsusceptible Acinetobacter baumannii without insertion mutations in adeRS” (Antimicrob Agents Chemother, 2010).

Values after ≈ are worked out from the molar mass of the structure shown.

Common to all, as to format: functional
Assay [1] relates to Acinetobacter baumannii. In words: Antibacterial activity against intI1-positive tigecycline-resistant Acinetobacter baumannii AB118 with PFGE subgroup B2 containing carbapenemase OXA-23 and OXA-51 by Etest.
The test system of assay [2] is Acinetobacter baumannii. In words: Antibacterial activity against intI1-positive tigecycline-susceptible Acinetobacter baumannii AB095 with PFGE subgroup E containing carbapenemase OXA-23 and OXA-51 by Etest.
The test system of assay [3] is Acinetobacter baumannii. Put plainly: Antibacterial activity against intI1-positive tigecycline-susceptible Acinetobacter baumannii AB018 with PFGE subgroup G containing carbapenemase OXA-58 and OXA-51 by Etest.
Assay [4] relates to Acinetobacter baumannii. Put plainly: Antibacterial activity against intI1-positive tigecycline-intermediate Acinetobacter baumannii AB127 with PFGE subgroup I containing carbapenemase OXA-23 and OXA-51 by Etest.
In assay [5] the test system is Acinetobacter baumannii. Put plainly: Antibacterial activity against intI1-positive tigecycline-resistant Acinetobacter baumannii AB134 with PFGE subgroup A2 containing carbapenemase OXA-23 and OXA-51 by Etest.
Assay [6] relates to Acinetobacter baumannii. In words: Antibacterial activity against intI1-positive tigecycline-susceptible Acinetobacter baumannii AB110 with PFGE subgroup C containing carbapenemase OXA-51 by Etest.
Assay [7] concerns Acinetobacter baumannii. In words: Antibacterial activity against intI1-negative tigecycline-intermediate Acinetobacter baumannii AB098 with PFGE subgroup F containing carbapenemase OXA-23 and OXA-51 by Etest.
The test system of assay [8] is Acinetobacter baumannii. Put plainly: Antibacterial activity against intI1-positive tigecycline-resistant Acinetobacter baumannii AB096 with PFGE subgroup B1 containing carbapenemase OXA-23 and OXA-51 by Etest.
Assay [9] concerns Acinetobacter baumannii. In words: Antibacterial activity against intI1-positive tigecycline-resistant Acinetobacter baumannii AB097 with PFGE subgroup B1 containing carbapenemase OXA-23 and OXA-51 by Etest.
Assay [10] concerns Acinetobacter baumannii. In words: Antibacterial activity against intI1-positive tigecycline-resistant Acinetobacter baumannii AB168 with PFGE subgroup A1 containing carbapenemase OXA-23 and OXA-51 by Etest.
Assay [11] deals with Acinetobacter baumannii. Put plainly: Antibacterial activity against intI1-positive tigecycline-intermediate Acinetobacter baumannii AB099 with PFGE subgroup H containing carbapenemase OXA-23 and OXA-51 by Etest.
Assay [12] deals with Acinetobacter baumannii. Put plainly: Antibacterial activity against intI1-positive tigecycline-susceptible Acinetobacter baumannii AB039 with PFGE subgroup B1 containing carbapenemase OXA-23 and OXA-51 by Etest.
Assay [13] relates to Acinetobacter baumannii. Put plainly: Antibacterial activity against intI1-positive tigecycline-resistant Acinetobacter baumannii AB125 with PFGE subgroup A1 containing carbapenemase OXA-23 and OXA-51 by Etest.
For assay [14], the system named is Acinetobacter baumannii. Put plainly: Antibacterial activity against intI1-positive tigecycline-resistant Acinetobacter baumannii AB106 with PFGE subgroup B1 containing carbapenemase OXA-23 and OXA-51 by Etest.
The test system of assay [15] is Acinetobacter baumannii. Put plainly: Antibacterial activity against intI1-positive tigecycline-resistant Acinetobacter baumannii AB113 with PFGE subgroup B1 containing carbapenemase OXA-23 and OXA-51 by Etest.
The test system of assay [16] is Acinetobacter baumannii. In words: Antibacterial activity against intI1-positive tigecycline-intermediate Acinetobacter baumannii AB166 with PFGE subgroup A3 containing carbapenemase OXA-51 by Etest.
Assay [17] has as its system Acinetobacter baumannii. Put plainly: Antibacterial activity against intI1-positive tigecycline-resistant Acinetobacter baumannii AB173 with PFGE subgroup B1 containing carbapenemase OXA-23 and OXA-51 by Etest.

With `C[C@@H](O)[C@H]1C(=O)N2C(C(=O)O)=C(SCCNC=N)C[C@H]12` [IMIPENEM ANHYDROUS], the MIC is more than 32 mg/L against Acinetobacter baumannii [1]; 32 mg/L (≈ 107 µM) in the assay with Acinetobacter baumannii [2]; 8 mg/L (≈ 26.7 µM) in the assay on Acinetobacter baumannii [3]; 32 mg/L (≈ 107 µM) in the assay with Acinetobacter baumannii [4]; more than 32 mg/L in the assay on Acinetobacter baumannii [5]; 1.5 mg/L (≈ 5.01 µM) in the assay with Acinetobacter baumannii [6]. The MIC in the assay with Acinetobacter baumannii [7], in the assay on Acinetobacter baumannii [8], against Acinetobacter baumannii [9], in the assay on Acinetobacter baumannii [10], in the assay on Acinetobacter baumannii [11] and against Acinetobacter baumannii [12] was more than 32 mg/L each time. The MIC was more than 32 mg/L against Acinetobacter baumannii [13]; more than 32 mg/L in the assay with Acinetobacter baumannii [14]; 32 mg/L (≈ 107 µM) against Acinetobacter baumannii [15]; 6 mg/L (≈ 20 µM) in the assay with Acinetobacter baumannii [16]; 32 mg/L (≈ 107 µM) in the assay on Acinetobacter baumannii [17].
As to `CCN1CCN(C(=O)N[C@@H](C(=O)N[C@@H]2C(=O)N3[C@@H]2SC(C)(C)[C@@H]3C(=O)O)c2ccccc2)C(=O)C1=O` [PIPERACILLIN], the MIC with Acinetobacter baumannii [1], against Acinetobacter baumannii [2], with Acinetobacter baumannii [3], in the assay on Acinetobacter baumannii [4], against Acinetobacter baumannii [5] and in the assay with Acinetobacter baumannii [6] was more than 128 mg/L in each case. Moreover, the MIC in the assay on Acinetobacter baumannii [7], in the assay with Acinetobacter baumannii [8], in the assay with Acinetobacter baumannii [9], in the assay with Acinetobacter baumannii [10], in the assay on Acinetobacter baumannii [11] and in the assay on Acinetobacter baumannii [12] was more than 128 mg/L throughout. Moreover, the MIC against Acinetobacter baumannii [13], against Acinetobacter baumannii [14], against Acinetobacter baumannii [15], in the assay on Acinetobacter baumannii [16] and against Acinetobacter baumannii [17] was more than 128 mg/L throughout.
Turning to `C[C@]1(Cn2ccnn2)[C@H](C(=O)O)N2C(=O)C[C@H]2S1(=O)=O` [TAZOBACTAM], the MIC in the assay with Acinetobacter baumannii [1], in the assay on Acinetobacter baumannii [2], in the assay on Acinetobacter baumannii [3], in the assay with Acinetobacter baumannii [4], in the assay with Acinetobacter baumannii [5] and in the assay with Acinetobacter baumannii [6] was 4 mg/L (≈ 13.3 µM) in each case. Further, the minimum inhibitory concentration (MIC) against Acinetobacter baumannii [7], against Acinetobacter baumannii [8], against Acinetobacter baumannii [9], with Acinetobacter baumannii [10], against Acinetobacter baumannii [11] and with Acinetobacter baumannii [12] was 4 mg/L (≈ 13.3 µM) each time. Moreover, the MIC against Acinetobacter baumannii [13], in the assay on Acinetobacter baumannii [14], in the assay with Acinetobacter baumannii [15], with Acinetobacter baumannii [16] and in the assay with Acinetobacter baumannii [17] was 4 mg/L (≈ 13.3 µM) in each case.
